Measurements: ChEMBL document CHEMBL1201862, “PubChem BioAssay data set” (2004)
Calls of active or inactive are those of the source.

Legend:
[1] = target: T1, Short transient receptor potential channel 4 (Mus musculus, UniProt Q9QUQ5); test: potentiation of DAMGO-evoked TRPC4 calcium signal – cell-based, HEK293 TRPC4/mu-opioid, Fluo-4 calcium, EC20 DAMGO, dose response (AID 434941); format: functional
T1 sequence (Q9QUQ5 whole entry): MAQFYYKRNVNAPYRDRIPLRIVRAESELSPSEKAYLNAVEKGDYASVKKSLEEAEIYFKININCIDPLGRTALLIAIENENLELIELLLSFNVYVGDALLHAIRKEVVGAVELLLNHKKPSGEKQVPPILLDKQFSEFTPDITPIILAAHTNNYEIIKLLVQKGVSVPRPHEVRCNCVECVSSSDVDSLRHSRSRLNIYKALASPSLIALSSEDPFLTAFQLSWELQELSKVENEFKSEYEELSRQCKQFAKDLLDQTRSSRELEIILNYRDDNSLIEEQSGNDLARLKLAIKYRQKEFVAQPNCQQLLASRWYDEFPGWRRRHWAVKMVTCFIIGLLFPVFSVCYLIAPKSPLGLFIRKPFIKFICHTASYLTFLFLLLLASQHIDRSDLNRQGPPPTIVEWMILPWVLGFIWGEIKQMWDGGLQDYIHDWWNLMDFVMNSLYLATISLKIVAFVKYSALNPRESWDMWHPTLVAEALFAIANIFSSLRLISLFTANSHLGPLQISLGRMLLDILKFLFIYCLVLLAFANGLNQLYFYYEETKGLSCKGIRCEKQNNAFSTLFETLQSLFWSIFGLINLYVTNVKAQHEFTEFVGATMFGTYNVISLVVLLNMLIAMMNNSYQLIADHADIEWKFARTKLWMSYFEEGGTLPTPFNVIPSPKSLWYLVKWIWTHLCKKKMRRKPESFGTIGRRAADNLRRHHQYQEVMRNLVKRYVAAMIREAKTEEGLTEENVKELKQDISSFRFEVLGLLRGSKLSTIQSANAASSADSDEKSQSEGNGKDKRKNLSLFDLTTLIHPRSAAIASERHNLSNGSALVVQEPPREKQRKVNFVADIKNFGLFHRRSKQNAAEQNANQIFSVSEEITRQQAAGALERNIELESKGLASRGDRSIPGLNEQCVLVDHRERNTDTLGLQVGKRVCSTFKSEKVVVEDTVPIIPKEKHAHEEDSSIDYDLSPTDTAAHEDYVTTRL

[2] = target: T2, RNA-binding protein pos-1 (Caenorhabditis elegans, UniProt G5EF15); test: disruptors of C. elegans POS-1 RNA interaction – biochemical, fluorescence polarization, dose response (AID 1964);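 also: purified POS-1 fused to maltose binding protein made in E. coli; potency of compounds blocking POS-1 binding to fluorescent RNA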
T2 sequence (G5EF15 whole entry): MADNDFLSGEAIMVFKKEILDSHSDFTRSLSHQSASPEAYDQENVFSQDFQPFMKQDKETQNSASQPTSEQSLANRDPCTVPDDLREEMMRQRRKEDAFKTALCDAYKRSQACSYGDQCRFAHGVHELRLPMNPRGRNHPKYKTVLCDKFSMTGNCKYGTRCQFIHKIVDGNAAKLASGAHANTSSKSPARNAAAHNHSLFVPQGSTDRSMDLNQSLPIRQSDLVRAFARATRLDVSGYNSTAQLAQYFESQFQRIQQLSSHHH

[3] = target: T3, Zinc finger protein mex-5 (Caenorhabditis elegans, UniProt Q9XUB2); test: potency of MEX-5 RNA-binding blockers – biochemical, C. elegans, fluorescence polarization, dose response (AID 1960)
T3 sequence (Q9XUB2 whole entry): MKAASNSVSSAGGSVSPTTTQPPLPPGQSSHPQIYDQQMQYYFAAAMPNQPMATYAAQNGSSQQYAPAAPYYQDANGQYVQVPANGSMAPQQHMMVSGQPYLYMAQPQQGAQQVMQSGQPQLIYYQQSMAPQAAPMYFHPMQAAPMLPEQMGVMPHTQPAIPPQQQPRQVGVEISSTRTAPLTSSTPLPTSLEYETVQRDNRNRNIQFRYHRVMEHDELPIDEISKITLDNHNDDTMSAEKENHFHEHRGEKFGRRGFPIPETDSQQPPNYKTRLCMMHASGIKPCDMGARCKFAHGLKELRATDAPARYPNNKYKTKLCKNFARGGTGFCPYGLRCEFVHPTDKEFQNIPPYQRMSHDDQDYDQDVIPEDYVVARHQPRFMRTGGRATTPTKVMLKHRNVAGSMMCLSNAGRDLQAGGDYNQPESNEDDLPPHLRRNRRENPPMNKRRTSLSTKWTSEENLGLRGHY

[4] = target: G-protein coupled receptor 55 (Homo sapiens, UniProt Q9Y2T6); test: inhibition of LPI-stimulated GPR55 beta-arrestin translocation – imaging, U2OS, beta-arrestin-GFP, LPI agonist, primary screen (AID 2013); format: functional;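 also: antagonist potency measured as reduced agonist-driven arrestin aggregation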
G-protein coupled receptor 55, sequence (Q9Y2T6 whole entry): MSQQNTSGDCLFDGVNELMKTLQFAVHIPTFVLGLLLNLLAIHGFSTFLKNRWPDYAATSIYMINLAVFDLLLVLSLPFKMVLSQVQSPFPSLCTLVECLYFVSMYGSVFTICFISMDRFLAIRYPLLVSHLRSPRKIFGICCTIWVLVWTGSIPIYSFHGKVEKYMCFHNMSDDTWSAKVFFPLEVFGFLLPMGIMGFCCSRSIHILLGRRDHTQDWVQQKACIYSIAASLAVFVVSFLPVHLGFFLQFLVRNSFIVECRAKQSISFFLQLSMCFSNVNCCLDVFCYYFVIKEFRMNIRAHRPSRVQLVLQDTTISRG

[5] = target: DNA dC->dU-editing enzyme APOBEC-3A (Homo sapiens, UniProt P31941); test: Dose Response confirmation of small molecule APOBEC3A DNA Deaminase Inhibitors via a fluorescence-based single-stranded DNA deaminase assay. [Related pubchem assays (depositor defined):AID493011, AID493024]; format: functional
DNA dC->dU-editing enzyme APOBEC-3A, sequence (P31941 whole entry): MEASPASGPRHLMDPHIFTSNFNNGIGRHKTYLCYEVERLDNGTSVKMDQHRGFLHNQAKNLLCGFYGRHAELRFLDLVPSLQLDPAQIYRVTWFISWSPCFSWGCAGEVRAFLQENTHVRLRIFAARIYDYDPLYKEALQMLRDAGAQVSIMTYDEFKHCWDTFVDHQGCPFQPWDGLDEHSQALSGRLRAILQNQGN

[6] = target: DNA dC->dU-editing enzyme APOBEC-3G (Homo sapiens, UniProt Q9HC16); format: functional;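 also: Dose-response counterscreen measuring inhibition of APOBEC3G DNA deaminase activity, run while confirming APOBEC3A inhibitors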
DNA dC->dU-editing enzyme APOBEC-3G, sequence (Q9HC16 whole entry): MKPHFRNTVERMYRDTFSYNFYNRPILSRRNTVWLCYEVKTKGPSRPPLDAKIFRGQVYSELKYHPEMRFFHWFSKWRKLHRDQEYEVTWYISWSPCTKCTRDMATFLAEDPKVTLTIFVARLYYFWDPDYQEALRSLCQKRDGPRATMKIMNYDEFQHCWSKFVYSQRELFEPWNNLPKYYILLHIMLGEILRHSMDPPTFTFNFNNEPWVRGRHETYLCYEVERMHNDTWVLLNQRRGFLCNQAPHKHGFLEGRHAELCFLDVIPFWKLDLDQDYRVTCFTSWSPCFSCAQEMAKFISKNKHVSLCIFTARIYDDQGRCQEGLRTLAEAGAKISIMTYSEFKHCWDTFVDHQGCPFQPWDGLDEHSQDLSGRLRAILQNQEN

[7] = target: Intestinal-type alkaline phosphatase (Homo sapiens, UniProt P09923); test: activation of human intestinal alkaline phosphatase – biochemical, dose response (AID 488873); format: functional
Intestinal-type alkaline phosphatase (Homo sapiens, UniProt P09923), sequence (P09923 whole entry): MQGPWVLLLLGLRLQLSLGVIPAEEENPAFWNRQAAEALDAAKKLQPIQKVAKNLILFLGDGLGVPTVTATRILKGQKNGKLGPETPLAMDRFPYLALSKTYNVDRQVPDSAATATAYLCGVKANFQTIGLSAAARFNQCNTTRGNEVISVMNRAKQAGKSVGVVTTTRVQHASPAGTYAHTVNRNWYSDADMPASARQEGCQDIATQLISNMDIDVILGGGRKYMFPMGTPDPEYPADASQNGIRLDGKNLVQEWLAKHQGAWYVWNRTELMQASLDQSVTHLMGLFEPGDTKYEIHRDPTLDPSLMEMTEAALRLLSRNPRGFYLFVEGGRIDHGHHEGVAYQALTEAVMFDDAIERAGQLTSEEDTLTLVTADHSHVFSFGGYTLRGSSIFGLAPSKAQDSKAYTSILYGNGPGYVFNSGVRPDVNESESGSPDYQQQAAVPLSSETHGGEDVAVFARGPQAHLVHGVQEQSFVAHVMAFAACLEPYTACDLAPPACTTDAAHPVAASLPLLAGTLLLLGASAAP

[8] = target: Intestinal-type alkaline phosphatase (Mus musculus, UniProt P24822); test: PubChem AID 488785; format: functional
Intestinal-type alkaline phosphatase (Mus musculus, UniProt P24822), sequence (P24822 whole entry): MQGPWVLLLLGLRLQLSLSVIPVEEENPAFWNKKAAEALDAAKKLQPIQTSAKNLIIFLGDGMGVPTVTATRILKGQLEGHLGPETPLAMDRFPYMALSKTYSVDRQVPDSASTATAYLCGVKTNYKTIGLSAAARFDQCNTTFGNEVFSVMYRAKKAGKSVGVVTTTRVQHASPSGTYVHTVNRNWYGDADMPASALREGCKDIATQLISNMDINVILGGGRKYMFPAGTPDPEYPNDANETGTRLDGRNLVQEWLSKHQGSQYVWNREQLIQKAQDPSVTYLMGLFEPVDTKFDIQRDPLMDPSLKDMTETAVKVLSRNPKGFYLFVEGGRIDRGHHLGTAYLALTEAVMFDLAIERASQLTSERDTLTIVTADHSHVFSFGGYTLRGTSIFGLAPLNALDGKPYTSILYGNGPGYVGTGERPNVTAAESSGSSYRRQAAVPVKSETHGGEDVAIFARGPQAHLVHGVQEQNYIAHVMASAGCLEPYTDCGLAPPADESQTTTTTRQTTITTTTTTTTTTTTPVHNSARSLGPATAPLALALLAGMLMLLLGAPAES

[9] = target: T4, Alkaline phosphatase, tissue-nonspecific isozyme (Homo sapiens, UniProt P05186); test: TNAP enzyme inhibition by screening hits, dose response, selectivity assay for mouse IAP inhibitor project, biochemical, human TNAP, uHTS hits (AID 488906); format: functional
T4 sequence (P05186 whole entry): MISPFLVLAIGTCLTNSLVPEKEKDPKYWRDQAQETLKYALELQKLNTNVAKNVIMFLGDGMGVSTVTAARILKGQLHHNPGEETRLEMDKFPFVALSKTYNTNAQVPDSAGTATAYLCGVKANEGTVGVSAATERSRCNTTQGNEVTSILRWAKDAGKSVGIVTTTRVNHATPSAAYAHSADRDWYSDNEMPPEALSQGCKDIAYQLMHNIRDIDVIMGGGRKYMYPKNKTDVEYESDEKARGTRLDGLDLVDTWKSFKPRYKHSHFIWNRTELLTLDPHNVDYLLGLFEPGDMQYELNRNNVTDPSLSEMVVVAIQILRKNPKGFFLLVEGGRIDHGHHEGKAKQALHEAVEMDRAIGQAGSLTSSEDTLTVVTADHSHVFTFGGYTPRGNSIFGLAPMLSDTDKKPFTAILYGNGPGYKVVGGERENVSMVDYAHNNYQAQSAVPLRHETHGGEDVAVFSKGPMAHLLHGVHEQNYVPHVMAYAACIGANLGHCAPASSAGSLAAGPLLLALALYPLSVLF

[10] = tested on: H9c2; test: cells; format: functional, cell-based; details: Rattus norvegicus, H9c2, Myocardium;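 also: confirmatory concentration-response retest of ultra-high-throughput screening hits for modulation of myocardial damage; cell death induced by hydrogen peroxide oxidative stress; compound pretreatment for 60 min then peroxide exposure for 2 h; potency is for protecting the cells against peroxide damage rather than for killing them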
[11] = target: T5, Histone-lysine N-methyltransferase NSD2 (Homo sapiens, UniProt O96028); format: biochemical
T5 sequence (O96028 whole entry): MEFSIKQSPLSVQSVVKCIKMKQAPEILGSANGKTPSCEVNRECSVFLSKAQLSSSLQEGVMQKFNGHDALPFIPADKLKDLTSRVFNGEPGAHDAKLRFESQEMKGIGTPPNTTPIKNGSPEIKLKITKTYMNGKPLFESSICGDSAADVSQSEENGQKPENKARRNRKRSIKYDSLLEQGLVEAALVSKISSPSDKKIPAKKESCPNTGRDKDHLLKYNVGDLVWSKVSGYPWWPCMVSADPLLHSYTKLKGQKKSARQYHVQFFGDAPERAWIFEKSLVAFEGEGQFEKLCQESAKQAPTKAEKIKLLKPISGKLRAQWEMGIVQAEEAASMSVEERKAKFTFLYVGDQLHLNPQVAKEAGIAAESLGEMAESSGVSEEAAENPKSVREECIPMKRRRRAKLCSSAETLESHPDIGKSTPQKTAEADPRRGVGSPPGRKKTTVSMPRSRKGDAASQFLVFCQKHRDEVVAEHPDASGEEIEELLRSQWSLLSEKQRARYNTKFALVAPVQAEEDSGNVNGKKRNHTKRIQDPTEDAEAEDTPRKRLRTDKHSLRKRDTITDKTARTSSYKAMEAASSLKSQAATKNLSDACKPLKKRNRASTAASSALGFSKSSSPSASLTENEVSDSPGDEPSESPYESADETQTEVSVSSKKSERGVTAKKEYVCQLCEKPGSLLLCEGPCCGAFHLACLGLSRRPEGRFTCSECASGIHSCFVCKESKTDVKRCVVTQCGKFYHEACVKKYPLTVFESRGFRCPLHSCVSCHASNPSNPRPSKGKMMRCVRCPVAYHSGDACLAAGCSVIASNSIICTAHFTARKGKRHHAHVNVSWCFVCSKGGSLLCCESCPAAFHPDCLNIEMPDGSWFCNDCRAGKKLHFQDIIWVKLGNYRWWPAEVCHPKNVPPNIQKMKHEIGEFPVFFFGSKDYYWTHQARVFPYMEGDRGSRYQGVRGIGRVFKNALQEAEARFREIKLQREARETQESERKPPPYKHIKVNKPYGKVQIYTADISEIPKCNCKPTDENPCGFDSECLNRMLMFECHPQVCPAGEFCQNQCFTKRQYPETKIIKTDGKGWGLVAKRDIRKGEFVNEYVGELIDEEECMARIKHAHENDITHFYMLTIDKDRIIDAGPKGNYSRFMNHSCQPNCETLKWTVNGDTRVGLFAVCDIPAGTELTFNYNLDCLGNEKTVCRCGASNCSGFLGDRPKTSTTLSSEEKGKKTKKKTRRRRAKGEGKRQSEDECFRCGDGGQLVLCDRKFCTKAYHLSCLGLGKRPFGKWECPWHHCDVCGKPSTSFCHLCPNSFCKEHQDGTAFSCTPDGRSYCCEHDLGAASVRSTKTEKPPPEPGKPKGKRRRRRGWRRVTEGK

[12] = target: T6, CAAX prenyl protease 2 (Saccharomyces cerevisiae S288c, UniProt Q03530); format: biochemical
T6 sequence (Q03530 whole entry): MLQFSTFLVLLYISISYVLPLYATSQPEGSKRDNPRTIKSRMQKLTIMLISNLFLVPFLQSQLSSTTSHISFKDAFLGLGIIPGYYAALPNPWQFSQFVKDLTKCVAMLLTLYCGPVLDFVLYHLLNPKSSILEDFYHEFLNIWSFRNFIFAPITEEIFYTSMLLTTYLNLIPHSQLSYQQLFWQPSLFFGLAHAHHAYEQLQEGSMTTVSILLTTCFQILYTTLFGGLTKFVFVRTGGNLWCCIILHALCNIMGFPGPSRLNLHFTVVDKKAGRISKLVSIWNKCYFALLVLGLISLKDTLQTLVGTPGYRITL

[13] = target: Alkaline phosphatase, placental type (Homo sapiens, UniProt P05187); test: human placental alkaline phosphatase inhibition – biochemical, luminescence, confirmation (AID 1512); format: functional
Alkaline phosphatase, placental type, sequence (P05187 whole entry): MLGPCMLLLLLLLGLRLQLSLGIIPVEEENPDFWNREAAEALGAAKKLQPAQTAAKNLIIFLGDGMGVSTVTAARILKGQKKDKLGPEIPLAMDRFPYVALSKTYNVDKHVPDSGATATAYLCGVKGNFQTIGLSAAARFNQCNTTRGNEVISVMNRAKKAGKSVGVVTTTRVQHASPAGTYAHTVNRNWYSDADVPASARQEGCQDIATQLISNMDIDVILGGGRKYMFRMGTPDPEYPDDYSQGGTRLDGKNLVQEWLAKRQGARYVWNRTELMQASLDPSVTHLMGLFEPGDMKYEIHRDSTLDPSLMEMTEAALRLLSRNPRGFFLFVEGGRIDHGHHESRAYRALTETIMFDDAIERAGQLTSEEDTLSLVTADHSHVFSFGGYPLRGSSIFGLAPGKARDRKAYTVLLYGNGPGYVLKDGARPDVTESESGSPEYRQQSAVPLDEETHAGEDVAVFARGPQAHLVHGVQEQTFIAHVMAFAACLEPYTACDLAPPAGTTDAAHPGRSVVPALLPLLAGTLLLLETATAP

[14] = target: T4, Alkaline phosphatase, tissue-nonspecific isozyme; test: potency against alkaline phosphatase TNAP – biochemical, luminescent, dose response, SAR follow-up (AID 1056)
[15] = target: Nonstructural protein 1 (Influenza A virus, UniProt Q194T2); format: functional, Influenza A virus (A/California/07/2009(H1N1))
Nonstructural protein 1, sequence (Q194T2 whole entry): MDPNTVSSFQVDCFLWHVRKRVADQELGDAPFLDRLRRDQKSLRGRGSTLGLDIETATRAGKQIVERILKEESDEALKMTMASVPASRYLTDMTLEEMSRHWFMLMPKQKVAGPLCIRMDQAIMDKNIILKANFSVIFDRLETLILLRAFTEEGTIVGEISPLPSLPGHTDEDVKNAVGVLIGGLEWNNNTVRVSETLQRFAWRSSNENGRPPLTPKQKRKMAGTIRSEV

Structure (SMILES): Cc1cc(OCC(=O)N(C(C)C)C(C)C)cc(C)c1Br
- EC50 [1]: 3.76 µM (active)

Structure (SMILES): COC(=O)C1=C(C)N(Cc2ccccc2)C(=NCC(C)C)N[C@H]1c1ccccc1
- EC50 [2]: > 300 µM (not active)
- EC50 [3]: 42.7 µM (active)
- IC50 [4]: 1.78 µM (active)
- IC50 [5]: 4.65 µM (active)
- IC50 [6]: 4.17 µM (active)

Structure (SMILES): O=C(CN1CCN(c2ccccc2F)CC1)c1ccc(O)c(O)c1
- EC50 [7]: > 100 µM (inactive)
- IC50 [8]: 1.63 µM (active)
- IC50 [9]: 96.8 µM (active)
- IC50 [10]: > 79 µM (inactive)
- AC50 [11]: 8.98 µM (active)

Structure (SMILES): CCCCn1c(SCC(=O)N2c3ccccc3Sc3ccccc32)nc2c1c(=O)n(C)c(=O)n2C
- EC50 [1]: 4.22 µM (active)

Structure (SMILES): O=C1C(Cl)=C(Nc2cccc(O)c2)C(=O)N1Cc1ccccc1
- EC50 [1]: 3.76 µM (active)

Structure (SMILES): CCn1cc(/C=C(\NC(=O)c2ccccc2Cl)C(=O)N2CCOCC2)c2ccccc21
- AC50 [12]: 4.91 µM (active)

Structure (SMILES): CCCCN1C(=O)/C(=N\Nc2ccccc2)c2ccccc21
- IC50 [13]: 18.7 µM (active)
- IC50 [14]: 72.3 µM (active)

Structure (SMILES): CN1CCN(C2CCN(c3ccc(Nc4nnc(Cl)c(Nc5ccccc5S(C)(=O)=O)n4)c(OC(CF)CF)c3)CC2)CC1
- IC50 [15]: > 100 µM (active)

Structure (SMILES): Cn1c(NCC(=O)c2ccc(O)c(O)c2)nc2ccccc21
- IC50 [13]: 7.9 µM (active)
- IC50 [14]: 8.58 µM (active)

Structure (SMILES): CCOC(=O)C1=C(C)N=C(C)/C(=C(/O)OC)C1c1cccc([N+](=O)[O-])c1 (stereo not given)
- IC50 [4]: 1.47 µM (active)
